From patent US20240287076A1, “COMPOUNDS FOR TARGETING DEGRADATION OF BRUTON'S TYROSINE KINASE” (BIOGEN MA INC., priority 2021, published 2024) come the findings set out here.

The target in this test is T1, BTK (Homo sapiens, UniProt Q06187).
T1 construct: The GM01501.3 cell line endogenously expresses BTK with a HiBiT fusion tag via CRISPR knock-in at its C-terminal region; endogenous in cells; host or cells: GM01501.3 (GM01501 cells engineered by CRISPR knock-in of HiBiT at the BTK locus)
T1 sequence (Q06187 whole entry, the tested form may be a part): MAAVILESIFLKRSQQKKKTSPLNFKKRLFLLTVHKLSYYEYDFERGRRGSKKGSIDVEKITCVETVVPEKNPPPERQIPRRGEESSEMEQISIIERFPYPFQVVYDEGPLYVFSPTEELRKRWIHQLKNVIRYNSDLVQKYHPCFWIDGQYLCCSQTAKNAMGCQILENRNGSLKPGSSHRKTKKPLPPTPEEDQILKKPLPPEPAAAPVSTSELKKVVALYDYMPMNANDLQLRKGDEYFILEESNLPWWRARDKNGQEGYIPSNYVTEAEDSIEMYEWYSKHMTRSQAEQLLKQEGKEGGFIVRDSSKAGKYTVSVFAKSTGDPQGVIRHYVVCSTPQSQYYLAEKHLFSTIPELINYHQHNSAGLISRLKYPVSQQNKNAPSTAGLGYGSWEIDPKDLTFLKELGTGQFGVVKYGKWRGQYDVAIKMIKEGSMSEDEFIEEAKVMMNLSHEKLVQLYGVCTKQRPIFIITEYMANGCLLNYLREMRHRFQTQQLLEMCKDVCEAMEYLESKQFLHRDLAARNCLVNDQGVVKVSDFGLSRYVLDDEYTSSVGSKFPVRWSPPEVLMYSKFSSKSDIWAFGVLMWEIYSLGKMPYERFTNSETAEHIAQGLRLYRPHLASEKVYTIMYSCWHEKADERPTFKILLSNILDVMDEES
Description: BTK degradation assay using the HiBiT Method (Nano-Glo HiBiT Lytic Assay, GM01501.3 cells). The format is cell-based. The following applies: HiBiT Degradation on GM01501.3 BTK @ 6 hours. In short, it runs like this:
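Degradation read-out: HiBiT luminescence after lytic reagent addition, giving DC50. Compounds dosed from 10 μM in 11 half-log steps (duplicate) onto GM01501.3 cells, whose endogenous BTK carries a C-terminal HiBiT knock-in tag; 6 h exposure, 37 °C, 5% CO2.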
For orientation: HiBiT is a short tag that completes a luciferase, so light tracks the accessible tagged protein.
For orientation: DC50 means the concentration giving 50% degradation. Read a high DC50 as degradation only at high concentration. In turn, `Cc1cc(-c2ncnn3cc(-c4ccc(CN5CCC(c6ccc(NC7CCC(=O)NC7=O)cc6)CC5)cc4)cc23)ccc1CNC(=O)c1cnc(C(C)C)cn1` (centres unmarked) [Example 91, N-[[4-[6-[4-[[4-[4-[(2,6-dioxo-3-piperidyl)amino]phenyl]-1-piperidyl]methyl]phenyl]pyrrolo[2,1-f][1,2,4]triazin-4-yl]-2-methyl-phenyl]methyl]-5-isopropyl-pyrazine-2-carboxamide] had a DC50 of under 100 nM.

`Cc1cc(-c2ncnn3cc(-c4ncc(CN5CCC(c6ccc(C7CCC(=O)NC7=O)cc6)CC5)cc4C)cc23)ccc1CNC(=O)c1noc(C(C)(C)C)n1` (centres unmarked) [Example 213, 5-(tert-butyl)-N-(4-(6-(5-((4-(4-(2,6-dioxopiperidin-3-yl)phenyl)piperidin-1-yl)methyl)-3-methylpyridin-2-yl)pyrrolo[2,1-f][1,2,4]triazin-4-yl)-2-methylbenzyl)-1,2,4-oxadiazole-3-carboxamide] came in with a DC50 of under 100 nM.

`Cc1cc(-c2ncnn3cc(CCN4CCC(c5ccc(OC6CCC(=O)NC6=O)cn5)CC4)cc23)ccc1CNC(=O)c1noc(C(C)(C)C)n1` (centres unmarked) [Example 264, 5-(tert-butyl)-N-(4-(6-(2-(4-(5-((2,6-dioxopiperidin-3-yl)oxy)pyridin-2-yl)piperidin-1-yl)ethyl)pyrrolo[2,1-f][1,2,4]triazin-4-yl)-2-methylbenzyl)-1,2,4-oxadiazole-3-carboxamide] gave a half-maximal degradation concentration (DC50) of under 100 nM.

With `O=C1CCC(Nc2ccc(C3CCN(Cc4ccc(-c5cc6c(-c7ccc(CNC(=O)c8ccc(C(F)F)cc8)c(F)c7)ncnn6c5)cc4)CC3)cc2)C(=O)N1` (centres unmarked) [Example 101, 4-(difluoromethyl)-N-[[4-[6-[4-[[4-[4-[(2,6-dioxo-3-piperidyl)amino]phenyl]-1-piperidyl]methyl]phenyl]pyrrolo[2,1-f][1,2,4]triazin-4-yl]-2-fluoro-phenyl]methyl]benzamide], the half-maximal degradation concentration (DC50) is under 100 nM.

On to `Cc1cc(-c2ncnn3cc(CC[C@@H](F)CN4CCN(c5ccc(C6CCC(=O)NC6=O)cn5)CC4)cc23)ccc1CNC(=O)c1noc(C(C)(C)C)n1` (single isomer, unassigned) [Example 287], for which the half-maximal degradation concentration (DC50) is under 100 nM.

The compound `Cc1cc(-c2ncnn3cc(-c4cccc(CN5CCC(c6ccc(C7CCC(=O)NC7=O)cc6)CC5)n4)cc23)ccc1CNC(=O)c1noc(C(C)(C)C)n1` (centres unmarked) [Example 214, 5-(tert-butyl)-N-(4-(6-(6-((4-(4-(2,6-dioxopiperidin-3-yl)phenyl)piperidin-1-yl)methyl)pyridin-2-yl)pyrrolo [2,1-f][1,2,4]triazin-4-yl)-2-methylbenzyl)-1,2,4-oxadiazole-3-carboxamide] gave a half-maximal degradation concentration (DC50) of under 100 nM.

In turn, `Cc1cc(-c2ncnn3cc(-c4ccc(CN5CCC(c6ccc(NC7CCC(=O)NC7=O)cc6)CC5)cc4)cc23)ccc1CNC(=O)c1ccc(C(C)C)nn1` (centres unmarked) [Example 92, N-[[4-[6-[4-[[4-[4-[(2,6-dioxo-3-piperidyl)amino]phenyl]-1-piperidyl]methyl]phenyl]pyrrolo[2,1-f][1,2,4]triazin-4-yl]-2-methyl-phenyl]methyl]-6-isopropyl-pyridazine-3-carboxamide] showed a DC50 of under 100 nM.

On to `Cc1cc(-c2ncnn3cc(CCN4CCC(c5ccc6c(C7CCC(=O)NC7=O)nn(C)c6c5)CC4)cc23)ccc1CNC(=O)c1ccn(C(C)(C)C)n1` (centres unmarked) [Example 273, 1-(tert-butyl)-N-(4-(6-(2-(4-(3-(2,6-dioxopiperidin-3-yl)-1-methyl-1H-indazol-6-yl)piperidin-1-yl)ethyl)pyrrolo[2,1-f][1,2,4]triazin-4-yl)-2-methylbenzyl)-1H-pyrazole-3-carboxamide], for which the DC50 was under 100 nM.

For `Cc1cc(-c2ncnn3cc(-c4ccc(CN5CCC(c6ccc7c(N8CCC(=O)NC8=O)nn(C)c7c6)CC5)cc4F)cc23)ccc1CNC(=O)c1noc(C(C)(C)C)n1` [Example 246, 5-(tert-butyl)-N-(4-(6-(4-((4-(3-(2,4-dioxotetrahydropyrimidin-1(2H)-yl)-1-methyl-1H-indazol-6-yl)piperidin-1-yl)methyl)-2-fluorophenyl)pyrrolo[2,1-f][1,2,4]triazin-4-yl)-2-methylbenzyl)-1,2,4-oxadiazole-3-carboxamide], the DC50 is under 100 nM.

`CC(C)(C)c1nc(C(=O)NCc2ccc(-c3ncnn4cc(CCN5CCC(c6ccc(NC7CCC(=O)NC7=O)cn6)CC5)cc34)cc2F)no1` (centres unmarked) [Example 122, 5-tert-butyl-N-[[4-[6-[2-[4-[5-[(2,6-dioxo-3-piperidyl)amino]-2-pyridyl]-1-piperidyl]ethyl]pyrrolo[2,1-f][1,2,4]triazin-4-yl]-2-fluoro-phenyl]methyl]-1,2,4-oxadiazole-3-carboxamide] came in with a DC50 of under 100 nM.

`Cn1nc(N2CCC(=O)NC2=O)c2ccc(C3CCN(Cc4ccc(-c5cc6c(-c7ccc(CNC(=O)c8noc(C(C)(C)C)n8)c(F)c7)ncnn6c5)cc4F)CC3)cc21` [Example 33, 5-tert-butyl-N-[[4-[6-[4-[[4-[3-(2,4-dioxohexahydropyrimidin-1-yl)-1-methyl-indazol-6-yl]-1-piperidyl]methyl]-3-fluoro-phenyl]pyrrolo[2,1-f][1,2,4]triazin-4-yl]-2-fluoro-phenyl]methyl]-1,2,4-oxadiazole-3-carboxamide] displayed a 50% degradation concentration (DC50) of under 100 nM.

In turn, `CC(C)(C)OC1CN(C(=O)NCc2ccc(-c3ncnn4cc(-c5ccc(CN6CCC(c7ccc(NC8CCC(=O)NC8=O)cc7)CC6)c(F)c5)cc34)cc2F)C1` (centres unmarked) [Example 221, 3-(tert-butoxy)-N-(4-(6-(4-((4-(4-((2,6-dioxopiperidin-3-yl)amino)phenyl)piperidin-1-yl)methyl)-3-fluorophenyl)pyrrolo[2,1-f][1,2,4]triazin-4-yl)-2-fluorobenzyl)azetidine-1-carboxamide] had a DC50 of under 100 nM.

As to `CC(C)(C)c1nc(C(=O)NCc2ccc(-c3ncnn4cc(-c5ccc(CN6CCC(c7ccc(NC8CCC(=O)NC8=O)cn7)CC6)c(F)c5)cc34)cc2F)no1` (centres unmarked) [Example 222, 5-(tert-butyl)-N-(4-(6-(4-((4-(5-((2,6-dioxopiperidin-3-yl)amino)pyridin-2-yl)piperidin-1-yl)methyl)-3-fluorophenyl)pyrrolo[2,1-f][1,2,4]triazin-4-yl)-2-fluorobenzyl)-1,2,4-oxadiazole-3-carboxamide], the half-maximal degradation concentration (DC50) was under 100 nM.

The compound `CN(CCOc1ccc(OC2CCC(=O)NC2=O)cc1)Cc1ccc(-c2cc3c(-c4ccc(CNC(=O)c5noc(C(C)(C)C)n5)c(F)c4)ncnn3c2)nc1` (centres unmarked) [Example 229, 5-(tert-butyl)-N-(4-(6-(5-(((2-(4-((2,6-dioxopiperidin-3-yl)oxy)phenoxy)ethyl)(methyl)amino)methyl)pyridin-2-yl)pyrrolo[2,1-f][1,2,4]triazin-4-yl)-2-fluorobenzyl)-1,2,4-oxadiazole-3-carboxamide] came in with a DC50 of under 100 nM.

Turning to `Cc1cc(-c2ncnn3cc(CCN4CCC(c5ccn6c(N7CCC(=O)NC7=O)cnc6c5)CC4)cc23)ccc1CNC(=O)c1noc(C(C)(C)C)n1` [Example 269, 5-(tert-butyl)-N-(4-(6-(2-(4-(3-(2,4-dioxotetrahydropyrimidin-1(2H)-yl)imidazo[1,2-a]pyridin-7-yl)piperidin-1-yl)ethyl)pyrrolo[2,1-f][1,2,4]triazin-4-yl)-2-methylbenzyl)-1,2,4-oxadiazole-3-carboxamide], the DC50 is under 100 nM.

On to `CC1c2cc(OC3CCC(=O)NC3=O)ccc2CCN1Cc1ccc(-c2cc3c(-c4ccc(CNC(=O)c5noc(C(C)(C)C)n5)c(F)c4)ncnn3c2)nc1` (centres unmarked) [Example 232, 5-(tert-butyl)-N-(4-(6-(5-((7-((2,6-dioxopiperidin-3-yl)oxy)-1-methyl-3,4-dihydroisoquinolin-2(1H)-yl)methyl)pyridin-2-yl)pyrrolo[2,1-f][1,2,4]triazin-4-yl)-2-fluorobenzyl)-1,2,4-oxadiazole-3-carboxamide], for which the DC50 was 100 to 500 nM.

In the case of `Cc1cc(-c2ncnn3cc(-c4ccc5c(c4)CCN(CCc4ccc(NC6CCC(=O)NC6=O)cc4)C5)cc23)ccc1CNC(=O)c1noc(C(C)(C)C)n1` (centres unmarked) [Example 56, 5-tert-butyl-N-[[4-[6-[2-[2-[4-[(2,6-dioxo-3-piperidyl)amino]phenyl]ethyl]-3,4-dihydro-1H-isoquinolin-6-yl]pyrrolo[2,1-f][1,2,4]triazin-4-yl]-2-methyl-phenyl]methyl]-1,2,4-oxadiazole-3-carboxamide], the half-maximal degradation concentration (DC50) is under 100 nM.

As to `Cc1cc(-c2ncnn3cc(-c4ccc(CN5CCC(c6ncc(NC7CCC(=O)NC7=O)cn6)CC5)cc4)cc23)ccc1CNC(=O)c1noc(C(C)(C)C)n1` (centres unmarked) [Example 14, 5-tert-butyl-N-[[4-[6-[4-[[4-[5-[(2,6-dioxo-3-piperidyl)amino]pyrimidin-2-yl]-1-piperidyl]methyl]phenyl]pyrrolo [2,1-f][1,2,4]triazin-4-yl]-2-methyl-phenyl]methyl]-1,2,4-oxadiazole-3-carboxamide], the 50% degradation concentration (DC50) is under 100 nM.

Take `Cc1cc(-c2ncnn3cc(CCCCN4CCC(c5ccc6c(N7CCC(=O)NC7=O)nn(C)c6c5)CC4)cc23)ccc1CNC(=O)c1noc(C(C)(C)C)n1` [Example 133, 5-tert-butyl-N-[[4-[6-[4-[4-[3-(2,4-dioxohexahydropyrimidin-1-yl)-1-methyl-indazol-6-yl]-1-piperidyl]butyl]pyrrolo[2,1-f][1,2,4]triazin-4-yl]-2-methyl-phenyl]methyl]-1,2,4-oxadiazole-3-carboxamide]: the 50% degradation concentration (DC50) was under 100 nM.

In turn, `Cc1cc(-c2ncnn3cc(CCCCN4CC(c5ccc(NC6CCC(=O)NC6=O)cc5)C4)cc23)ccc1CNC(=O)c1noc(C(C)(C)C)n1` (centres unmarked) [Example 148, 5-tert-butyl-N-[[4-[6-[4-[3-[4-[(2,6-dioxo-3-piperidyl)amino]phenyl]azetidin-1-yl]butyl]pyrrolo[2,1-f][1,2,4]triazin-4-yl]-2-methyl-phenyl]methyl]-1,2,4-oxadiazole-3-carboxamide] returned a 50% degradation concentration (DC50) of 100 to 500 nM.
